The source of these data is ChEMBL document CHEMBL1641589, “Phosphoramidate pronucleotides of cytostatic 6-aryl-7-deazapurine ribonucleosides” (Bioorg Med Chem, 2011).

Data set [1] in a line: Chemical stability of the compound assessed as specific activity per ug at 30 uM after 30 mins in presence of purified carboxylesterase 2. The data set is classed as physicochemical. Conditions: isolated protein, 0.5 h.
The nature of data set [2]: Chemical stability of the compound assessed as specific activity per ug at 30 uM after 30 mins in presence of purified carboxylesterase 1. The format is physicochemical. Conditions: isolated protein, 0.5 h.
Data set [3] can be described thus: Chemical stability of the compound assessed as specific activity per ug at 30 uM after 30 mins in presence of purified cathepsin A. To be noted: 0.5 h. The format is physicochemical.
Data set [4] deals with HepG2. Put plainly: Cytotoxicity against human HepG2 cells after 3 days by XTT assay. The format is functional, cell-based. To be noted: HepG2, 72 h.
Data set [5] can be described thus: Cytotoxicity against human HeLaS3 cells after 3 days by XTT assay. Conditions: HeLa S3, 72 h. The data set is classed as functional, cell-based.
Data set [6] deals with HL-60. Put plainly: Cytotoxicity against human HL60 cells after 5 days by SRB assay. The format is functional. Conditions: HL-60, 120 h.
For data set [7], the system named is CCRF-CEM. Put plainly: Cytotoxicity against human CCRF-CEM cells after 3 days by XTT assay. The format is functional, cell-based. Conditions: 72 h. For orientation: Formazan colour is commonly taken as a measure of viable cells.
Data set [8] has as its system DU-145. Put plainly: Cytotoxicity against human DU145 cells after 5 days by SRB assay. The format is functional. Conditions: DU-145, 120 h. (The SRB assay estimates cell density from bound dye.)
Data set [9] can be described thus: Cytotoxicity against human Hs578 cells after 5 days by SRB assay. The data set is classed as functional. To be noted: Hs578, 120 h.
Data set [10] has as its system NCI-H23. Description: Cytotoxicity against human NCI-H23 cells after 5 days by SRB assay. The format is functional. Conditions: NCI-H23, 120 h.
Data set [11] relates to HCT-116. Put plainly: Cytotoxicity against human HCT116 cells after 5 days by SRB assay. The data set is classed as functional. Conditions: HCT-116, 120 h.
In data set [12] the test system is CCRF-CEM. Put plainly: Cell cycle arrest in human CCRF-CEM cells assessed as increased of cellular debris level at IC50 concentration using propidium iodide staining by flow cytometry relative to control. The data set is classed as functional. On the technique in general: Flow cytometry measures light scatter and fluorescence of single cells or particles in a stream.

The test system of data set [13] is CCRF-CEM. Put plainly: Cell cycle arrest in human CCRF-CEM cells assessed as accumulation at G2/M phase at IC50 concentration using propidium iodide staining by flow cytometry relative to control. The data set is classed as functional.
Data set [14] deals with CCRF-CEM. Description: Cell cycle arrest in human CCRF-CEM cells assessed as accumulation at S phase at IC50 concentration using propidium iodide staining by flow cytometry relative to control. The data set is classed as functional.
The subject of data set [15] is CCRF-CEM. Put plainly: Cell cycle arrest in human CCRF-CEM cells assessed as accumulation at G1 phase at IC50 concentration using propidium iodide staining by flow cytometry relative to control. The data set is classed as functional.

Regarding `COC(=O)[C@H](C)NP(=O)(OC[C@H]1O[C@@H](n2ccc3c(-c4ccco4)ncnc32)[C@H](O)[C@@H]1O)Oc1ccccc1` (some centres not stated), the results for the Stability in data set [1], in [2] and in [3] were 0 pmol/min, 86 pmol/min and 1249 pmol/min, respectively. The values for the IC50 in data set [4], in data set [5] and in data set [7] were 1200 nM, 1400 nM and 3440 nM, respectively. Further, the GI50 is 3310 nM in [6]; 1190 nM in data set [8]; 2310 nM in [9]; 4630 nM in data set [10]; 1030 nM in data set [11].

With `CCOC(=O)[C@H](C)NP(=O)(OC[C@H]1O[C@@H](n2ccc3c(-c4ccco4)ncnc32)[C@H](O)[C@@H]1O)Oc1ccccc1` (some centres not stated), the results for the Stability in data set [1], in [2] and in [3] were 0 pmol/min, 149 pmol/min and 11989 pmol/min, respectively. Further, the Activity in data set [12] is 42.5%; in data set [13], 18.06%; in [14], 55.3%; in data set [15], 26.6%. Moreover, the values for the IC50 in data set [4], in data set [5] and in data set [7] were 1420 nM, 1020 nM and 3340 nM, respectively. Also, the GI50 in data set [6] is 4860 nM; in data set [8] it was 2290 nM; in data set [9], 2180 nM; in [10] it was 2870 nM; in data set [11], 2500 nM.

`C[C@H](NP(=O)(OC[C@H]1O[C@@H](n2ccc3c(-c4ccco4)ncnc32)[C@H](O)[C@@H]1O)Oc1ccccc1)C(=O)OCc1ccccc1` (some centres not stated): the values for the Stability in data set [1], in data set [2] and in data set [3] were 0 pmol/min, 133 pmol/min and 14727 pmol/min, respectively. The Activity is 48.8% in data set [12], 13.7% in data set [13], 54.7% in [14] and 31.6% in data set [15]. Besides, the figures for the IC50 in data set [4], in [5] and in data set [7] were 620 nM, 580 nM and 1130 nM, respectively. Also, the GI50 was 2190 nM in data set [6]; 1360 nM in data set [8]; 1040 nM in data set [9]; 1910 nM in [10]; 1080 nM in [11].

On to `COC(=O)[C@H](C)NP(=O)(OC[C@H]1O[C@@H](n2ccc3c(-c4ccsc4)ncnc32)[C@H](O)[C@@H]1O)Oc1ccccc1` (some centres not stated), for which the Stability amounted to 0 pmol/min in data set [1], 167 pmol/min in [2] and 1496 pmol/min in data set [3]. For the same molecule, the half-maximal inhibitory concentration (IC50) in data set [4], in data set [5] and in [7] was over 10000 nM in each case. The GI50 in data set [6], in data set [8], in data set [9], in data set [10] and in data set [11] was over 10000 nM throughout.

For orientation: IC50 means the concentration at which inhibition is half-maximal. Read a low IC50 as greater potency in that assay. One may read the GI50 as the concentration at which growth is held to half of that of the control.
